Test results taken from patent US8263655B2, “Methods for treatment of renal failure” (Technion Research and Development Foundation Ltd, priority 2005, dated 2012).

Experiments:
[1] = system: rats with CHF; test: Chronic administration to rats with experimental congestive heart failure (aortocaval fistula), renal excretory parameters; format: in vivo, Sprague Dawley rats; details: for diuretic and natriuretic responses in rats with congestive heart failure: summary statement
Procedure: (§1) (ii) Animals. Studies were conducted on Sprague Dawley rats (Harlan Laboratories Ltd., Jerusalem, Israel), weighing 290˜330 g. The animals were kept in a temperature-controlled room, and were fed standard rat chow containing 0.5% NaCl and tap water ad libitum. All experiments were performed according to the guidelines of the Technion Committee for Supervision of Animal Experiments (Haifa, Israel). Rats were subjected to one of the experimental protocols, described in Examples 1 and 2 hereinafter.
(§2) (iii) Chemical analysis. Sodium concentration in plasma and urine was determined by flame photometry (model IL 943, Instrumentation Laboratory). Inulin and creatinine concentrations were determined by the colorimetric anthrone method. Glomerular filtration rate (GFR) was equated with the clearance of inulin or creatinine.
Following surgery, the rats were allowed to recover and housed in individual metabolic cages for measurements of daily urine volume and urinary sodium/potassium excretion.
Rasagiline or S-(−)-N-propargyl-1-aminoindan were dissolved in drinking water and given orally at a dose of 1 or 7.5 mg/kg/day for 5 days to normal rats. Following this period, the animals were subjected either to sham operation (n=6) or to creation of aortocaval fistula (ACF) (n=6) as described above. These experimental groups were treated daily by gavage with 1 or 7.5 mg/kg of rasagiline or S-(−)-N-propargyl-1-aminoindan for additional 14 days, and their daily urine volume, sodium and potassium excretion were measured. Rats treated with vehicle (water) served as controls. After completion of the treatment period, animals from the different experimental groups were killed by decapitation and their blood was collected in pre-cooled tubes. Rats with sham operation or animals with arterio-venous fistula treated with vehicle served as controls.

[2] = system: rats with renal ischemia; test: Rat renal ischemia-reperfusion injury (IRI) model of acute renal failure, renal clearance study; format: in vivo, Sprague Dawley rats; details: for diuretic and natriuretic responses and GFR in the ischemic kidney: summary statement
Procedure: as §1, §2
For this purpose, the effects of either rasagiline or S-(−)-N-propargyl-1-aminoindan on renal clearance parameters, i.e., glomerular filtration rate (GFR), absolute and fractional sodium excretion rates (UNaV and FENa, respectively), and urinary flow (V) were studied in rats that underwent renal ischemia. Rats that underwent the same procedure, but were treated with vehicle, served as controls.
The surgical procedure for the induction of renal ischemia has been previously described (Sela et al., 1992). Briefly, the animals were anesthetized with Inactin (100 mg/kg, i.p.), placed on a thermo-regulated (37° C.) surgical table and prepared for hemodynamic and clearance studies (Brodsky et al., 1998). After tracheotomy, polyethylene tubes (PE50) were inserted into the carotid artery, jugular vein and urinary bladder for blood pressure monitoring, infusion of various solutions and urine collections, respectively. A solution of 2% inulin in 0.9% saline was infused throughout the experiment at a rate of 1.0% of body weight per hour. […] Then, the left kidney was exposed and the renal artery was clamped for forty-five minutes of ischemia, followed by 60 min of reperfusion. The right kidney served as the control, for each animal. Thirty minutes prior to the induction of the renal ischemia, animals were treated with either rasagiline or S-(−)-N-propargyl-1-aminoindan administered as a bolus injection (1.0 mg/kg, I.V.), followed by a sustained infusion of the drugs at a dose of 2 mg/kg/h throughout the whole experiment. Animals treated with saline served as controls. Then, two additional clearance periods were obtained under the influence of the drug. Urine volume was determined gravimetrically. Blood samples were obtained in the midst of every 2nd clearance period.

| SMILES | diuretic and natriuretic responses in rats with congestive heart failure [1] | diuretic and natriuretic responses and GFR in the ischemic kidney ([2]; ischemic kidney) | GFR (creatinine clearance test) ([1]; rats with CHF, 1 or 7.5 mg/kg/day by gavage for 2 weeks, FIG. 6) | urinary flow rate (daily urine volume) ([1]; rats with CHF, 1 or 7.5 mg/kg/day orally, 14 days after fistula, FIGS. 3A-3B) | absolute (daily) urinary sodium excretion ([1]; rats with CHF, 1 or 7.5 mg/kg/day orally, 14 days, FIG. 4) | cumulative urinary sodium excretion ([1]; rats with CHF, 1 or 7.5 mg/kg/day orally, 14 days, FIG. 5) | glomerular filtration rate (GFR), function of the ischemic kidney ([2]; ischemic (left) kidney, 1.0 mg/kg I.V. bolus 30 min prior to ischemia, then 2 mg/kg/h infusion, 45 min ischemia, 60 min reperfusion, FIG. 1B) | fractional excretion of Na+ (FENa) by ischemic kidney ([2]; ischemic kidney, 1.0 mg/kg I.V. bolus, then 2 mg/kg/h infusion, FIG. 2B) | fractional excretion of Na+ (FENa) by normal kidney ([2]; normal kidney, 1.0 mg/kg I.V. bolus, then 2 mg/kg/h infusion, FIG. 2A) |
| --- | --- | --- | --- | --- | --- | --- | --- | --- | --- |
| C#CCN[C@@H]1CCc2ccccc21 [rasagiline, R(+)-N-propargyl-1-aminoindan, reference compound] | significant diuretic and natriuretic responses | diuretic and natriuretic responses accompanied by improved GFR |  |  |  |  |  |  |  |
| C#CCN[C@H]1CCc2ccccc21 [S-(−)-N-propargyl-1-aminoindan] | significant diuretic and natriuretic responses | diuretic and natriuretic responses accompanied by improved GFR | enhanced GFR | increased the urinary flow rate | markedly enhanced | markedly enhanced | improved the function of the ischemic kidney | enhanced FENa by ischemic kidney more than rasagiline | increased the fractional excretion of Na^+ (FENa) by normal kidney |
